Data taken from patent US20260207568A1, “COMPOSITIONS AND METHODS FOR IMPROVING NEUROLOGICAL DISEASES AND DISORDERS” (CuraSen Therapeutics, Inc., priority 2022, published 2026).
Entries after “also recorded” stand apart in the source; their conditions may differ.

Legend:
[1] = test system: healthy volunteers; assay: Heart rate by triplicate ECG, Compound 03-5 with or without nadolol; type: in vivo, human; settings: 6 mg Compound 03-5 after pre-administration of 1 mg nadolol
Method: Heart rate was measured by triplicate ECG recordings. Data are presented as means changes from time-matched measures recorded on the day before the first dose of study drug (Day −1).
(§1) On all dosing days, study drug(s) were administered orally after an overnight fast of at least 8 hours.
(§2) Routine measures of ECG, vital signs, safety labs, physical exams and plasma sample collections for analysis of drug pharmacokinetics (PK) were undertaken according to the Schedule of Events (Table 1).

[2] = test system: healthy volunteers aged 55-75 years; assay: CANTAB cognition battery, Cohort D2; type: in vivo, human; settings: Compound 03-5 1, 3, 10 mg once daily, 2 h after 3 mg nadolol
Method: Data are presented as mean changes from the within-day pre-dose assessment.
(§3) In Cohort D2, 8 healthy volunteers aged 55-75 years were admitted on Day −1 for a 5-day confinement period at the research facility. […] Subjects remained in-residency until all study procedures are completed on Day 4. • ? Compound 03-5 dose administration. Compound 03-5 was administered as escalating doses on Day 1 (1 mg), Day 2 (3 mg) and Day 3 (10 mg). CANTAB was conducted twice in all subjects on the day prior to start of dosing (Day −1) to familiarize subjects with the platform, and prior to dosing and approximately 3 hours after Compound 03-5 administration on Days 1, 2, and 3.

[3] = test system: healthy volunteers; assay: Peripheral effects of Compound 03-5 (heart rate, glucose, potassium, tachycardia, tremor, palpitations) with nadolol; type: in vivo, human
Method: Data are presented as individual observations for all available subjects.
as §1, §2, §3

[4] = test system: healthy subjects; assay: Cognitive performance, CuraSen study CLIN-003; type: in vivo, human; settings: daily dose of 80 μg CST-103, healthy subjects, preliminary data
Source text: (§4) It was hypothesized that by improving cerebral perfusion, particularly in areas of the brain that are relevant for symptoms that are commonly found in PD and MCI, the administration of a β-AR agonist would have a positive effect on clinically relevant symptoms such as memory and cognition.

[5] = test system: healthy subjects; assay: Cerebral perfusion by ASL MRI after single doses of clenbuterol (Example 3); type: in vivo, human
Method: In a clinical study, healthy subjects were administered doses of clenbuterol ranging from 20 to 160 μg and ASL MRI was conducted prior to and after dosing with an objective to ascertain whether this neuroimaging method enables the detection of a clinically relevant CNS signal.
In a region of interest (ROI) analysis focusing on the hippocampus, which is well understood to be affected in neurodegenerative disorders, a single dose of 80 μg of clenbuterol causes a robust increase in perfusion (see FIG. 7). […] Our hypothesis is that by improving cerebral perfusion, particularly in areas of the brain that are relevant for symptoms that are commonly found in neurodegenerative diseases such as PD and AD, the administration of a β-AR agonist (such as a β-agent) will have a positive effect on clinically relevant symptoms such as memory and cognition.

[6] = ASL MRI cerebral perfusion, CuraSen study CLIN-002; type: in vivo; settings: CST-103 80 and 160 μg
Source text: as §4

[7] = test system: healthy volunteers; assay: Cerebral blood flow by ASL MRI in healthy volunteers (Example 6)
Method: In the 4 cohorts of healthy volunteers, study drug was administered as follows:
All subjects received single oral dose of 20 μg clenbuterol on Day 1, and a single oral dose of 40 μg clenbuterol on Day 8, with ASL MRI scans before and 3 hours after dosing on both days.
All subjects received a single oral dose of 80 μg clenbuterol on Day 1, with ASL MRI scans before, and 3 hours 1 day and 2 days after clenbuterol administration to evaluate the longevity of the ASL MRI signal
ASL MRI scans were conducted before and 3 hours after clenbuterol administration on Day 1 and Day 7.
ASL MRI scans were conducted before and 3 hours after clenbuterol administration on Day 2 and Day 9.
All scans were conducted using pseudo continuous ASL MRI. Only subjects with no contraindications to being in a strong magnetic field were evaluated by MRI. Participants were positioned comfortably and supine in the head coil to minimize any motion during the scan with proper back support, and support under the knees for comfort and to reduce motion in the scan, and the head was centered in the head coil and velcro straps or foam padding were used to reduce motion.
Imaging was performed on a GE Signa PET-MR 3T system.
For accurate quantitative measurements of brain structures a high-resolution T1-weighted, 3D volumetric sequences (e.g., MP-RAGE, IR-FSPGR) in the sagittal plane. Scan parameters of the pCASL sequence were: straight axial/transversal slices, labeling duration=1.8s, post-labeling delay=2.0 s, 15-20 cm slab thickness, pCASL average labeling gradient 1 mT/m, pCASL slice selective labelling gradient 10 mT/m, pASL TI1 (QUIPSS II Saturation Time) 800 ms, pASL labeling slab thickness 15-20 cm, 70 volumes, spatial resolution 3 mm in-plane/5 mm through-plane/gap 1 mm, 3D RARE stack-of-spiral or 3D GRASE 4-15 ms readouts, turbo-factor of 8 to 12; echo train of up to 300 ms, 2D EPI Single shot, minimum echo time, and duration 5 min.
Multiple ROIs were evaluated including whole brain, cortex, subcortical, thalamus, amygdala, hippocampus, and cerebellum which were chosen due to their relevance for cognition or alertness, and the periaqueductal grey for its relevance to motor control. Grey matter (GM) masking was applied for reporting of CBF in the GM of these ROIs.
Regional mean CBF values were extracted for each ROI and subsequently, the CBF for each region was compared before and after administration of clenbuterol.
Baseline/Predose versus Postdose change (%) for each subject and each region was calculated as 100*(Postdose_CBF−Baseline_CBF)/(Baseline_CBF). For each region, the cohort summary of CBF change (=mean relative displacement, MRD) was described by the group mean and standard deviation of the individual CBF changes.

[8] = test system: healthy volunteers and subjects with MCI or PD; assay: Safety and tolerability (TEAEs, heart rate, blood pressure, labs), Example 6; settings: for mean increase in supine heart rate from baseline: no nadolol
Method: (§5) Safety and tolerability were evaluated by questioning for adverse events (AEs), triplicate 12-lead ECGs, laboratory safety tests on urine and blood with multiple chemistry panels including potassium, blood glucose levels, vital sign measurements, and physical examinations at regular time-points during the study.

[9] = test system: healthy subjects; assay: Adaptive tracking test; type: in vivo, human; settings: single dose 160 μg clenbuterol
Source text: Adaptive tracking measures visuomotor coordination and vigilance. In this test, the subject uses a joystick to move a small dot so that it stays within a continuously moving circle on a computer screen (Boland 1984). During the test, the speed of the circle is adjusted in response to the subject's ability to keep the dot in the circle, ensuring that the test is adapted to the individual subject. […] The improvement shown by subjects is in the same range as that seen with subjects treated with the acetylcholinesterase inhibitor donepezil, which is in clinical use for the treatment of mild to moderate AD (Groeneveld 2016).

[10] = test system: human subjects; assay: Cerebral blood flow after a single dose of clenbuterol and/or nadolol, or pindolol (Example 1); type: in vivo
[11] = test system: subjects; assay: Visual verbal learning test (VVLT); type: in vivo, human; settings: for effect on the VVLT (learning and memory): crossover study, 3 agents plus placebo
Method: Subjects are presented 30 words on a screen, one at a time, for 1 second with a 1-second interval between words over a total of 1 minute. This is repeated in 3 trials. After each trial, subjects are asked to recall as many words as they can. […] Since this was a crossover study, everyone who completed Part A was dosed with the 3 agents plus placebo.

[12] = Plasma pharmacokinetics of clenbuterol and nadolol (Example 6); settings: human, in vivo
Source text: (§6) Pharmacokinetic (PK) parameters were computed from the individual plasma drug concentrations using a non-compartmental approach.

[13] = test system: subjects with MCI or PD; assay: Cerebral blood flow by ASL MRI in subjects with MCI or PD (Example 6); type: in vivo, human; settings: for CBF MRD in the hippocampus, repeat dose comparison: 80 μg clenbuterol without nadolol; for CBF mean (±SEM) MRD in hippocampus / CBF mean (±SEM) MRD in whole brain: Day 9, N=4
[14] = Prior CuraSen studies of low-dose nadolol (CST-107) on peripheral β2-AR agonist effects; settings: 1 mg nadolol (CST-107), co-administered with 80 μg CST-103
[15] = test system: healthy volunteers and subjects with MCI or PD; settings: in vivo
Method: as §5

[16] = clinical; settings: human, in vivo; for Cmax: po
Source text: as §6

[17] = doses of 80 and 160 μg clenbuterol
[18] = 80 μg clenbuterol, absence of nadolol
[19] = 80 μg clenbuterol, presence of 1 mg nadolol

Structure (SMILES): CC(C)(C)NC[C@H](O)c1cccc(C#N)n1 [Compound 03-5, (S)-6-(2-(tert-butylamino)-1-hydroxyethyl)picolinonitrile]
- mean maximum increase in heart rate [1]: 7 beats per minute
- performance in the CANTAB cognition battery [2]: improvements in performance in the CANTAB cognition battery were observed
- hypokalemia (blood potassium levels) ([3]; Compound 03-5 monotherapy 0.3 mg-6 mg, Cohorts A1-A5): Dose-dependent increases in hypokalemia

Structure (SMILES): CC(C)(C)NCC(O)c1cc(Cl)c(N)c(Cl)c1 (stereo not drawn) [clenbuterol]
- cognitive performance [4]: improves cognitive performance
- cerebral perfusion as measured by CBF ([5]; clenbuterol dose of 40 μg): minimal increase
- cerebral perfusion as measured by CBF ([5]; clenbuterol doses below 30 μg): do not produce significant cerebral perfusion increases
- improvements in perfusion in brain areas relevant to neurodegenerative disorders [5, 17]: ~25%
- increases in cerebral perfusion in hippocampus and thalamus [5, 17]: 20% to 25
- increase in hippocampal perfusion, average ([5]; single dose 80 μg clenbuterol, 6 healthy subjects aged 44-52): 25%
- cerebral perfusion (ASL MRI) ([5]; single dose 160 μg clenbuterol, healthy subjects): robust global increase in cerebral perfusion
- cerebral perfusion (ASL MRI) [6]: robust global increase in cerebral perfusion
- increase in cerebral perfusion in the hippocampus [6]: up to 28%
- increase in cerebral perfusion in the thalamus [6]: up to 15%
- CBF mean (±SEM) percent relative displacement (MRD) from baseline in the hippocampus ([7]; 20 μg clenbuterol, no nadolol (first value of the list)): −1.7±1.3%
- CBF mean SEM MRD from baseline ([7]; 160 μg clenbuterol about 2.5 h after 5 mg nadolol (Day 9)): 14.0±6.5%
- CBF mean (±SEM) percent relative displacement (MRD) from baseline in the hippocampus ([7]; 160 μg clenbuterol in the absence of nadolol): 28.5±4.1%
- CBF by ASL MRI ([7]; 20, 40, 80 and 160 μg clenbuterol, absence of nadolol): dose-dependent increase in CBF
- CBF change from baseline ([7]; 3 hours after single dose of 80 μg clenbuterol): increases in CBF from baseline are evident
- CBF change from baseline ([7]; 24 hours after single dose of 80 μg clenbuterol): decreased but still evident
- CBF change from baseline ([7]; 48 hours after single dose of 80 μg clenbuterol): returned to baseline
- decrease in heart rate from baseline ([8]; 3 hours after 160 μg clenbuterol with pre-administration of 5 mg nadolol): 2.75 bpm
- overall safety and tolerability ([8]; all subjects): overall safe and well tolerated
- severity of TEAEs ([8]; all subjects enrolled): mild-to-moderate
- effects on supine, sitting or standing blood pressure ([8]; clenbuterol in the absence or presence of nadolol): no clinically meaningful effects
- subjects with TEAEs considered related to clenbuterol ([8]; healthy volunteers): 12/25
- mean increase in supine heart rate from baseline ([8]; healthy volunteers, 3 hours after 20 μg clenbuterol): 7.5 bpm
- mean increase in supine heart rate from baseline ([8]; healthy volunteers, 3 hours after 40 μg clenbuterol): 7.5 bpm
- mean increase in supine heart rate from baseline ([8]; healthy volunteers, 3 hours after 80 μg clenbuterol): 9.2-12.38 bpm
- mean increase in supine heart rate from baseline ([8]; healthy volunteers, 3 hours after 160 μg clenbuterol): 30.5 bpm
- increase in heart rate ([8]; subjects with MCI or PD, 80 μg clenbuterol): 10.67-14.65 bpm
- subjects with TEAEs considered related to clenbuterol ([8]; subjects with neurodegenerative disease): 6/8
- performance in adaptive tracking (percent time dot kept within moving circle) [9]: improved adaptive tracking; also recorded: performance in adaptive tracking improves
- cognition as measured by adaptive tracking and word recall ([9]; healthy subjects, preliminary data): improves cognition
- cerebral blood flow (CBF) relative to baseline ([10]; single dose clenbuterol 160 μg): robust global increase in cerebral blood flow (CBF); also recorded: positive increase in cerebral blood flow
- cerebral blood flow (CBF) relative to baseline ([10]; single dose clenbuterol 160 μg and nadolol 5 mg): robust global increase in cerebral blood flow (CBF)
- cerebral blood flow (CBF) relative to baseline ([10]; single dose clenbuterol 30 to 160 μg (nadolol 5 mg in some subjects), tracked 3 days): robust global increase in cerebral blood flow (CBF)
- effect on the VVLT (learning and memory) [11]: positive effects on the VVLT
- VVLT improvement in correctly recalled words ([11]; immediate and delayed recall, crossover study vs placebo): 1.5 to 2 correctly recalled words
- half-life [12]: 12 to 31 h
- CBF MRD in the hippocampus, repeat dose comparison ([13]; Day 2, 4 subjects): 17.55±6.37%
- CBF MRD in the hippocampus, repeat dose comparison ([13]; Day 9, 4 subjects): 14.72±10.56%
- CBF mean (±SEM) MRD in hippocampus [13, 18]: 14.7±10.6%
- CBF mean (±SEM) MRD in whole brain [13, 18]: 4.8±12.6%
- CBF mean (±SEM) MRD in hippocampus [13, 19]: 12.5±5.7%
- CBF mean (±SEM) MRD in whole brain [13, 19]: 5.9±8.6%
- CBF in multiple brain regions incl. hippocampus and thalamus ([13]; 80 μg clenbuterol, with and without pre-administration of 1 mg nadolol): Significant increases in CBF

Structure (SMILES): CC(C)(C)NCC(O)COc1cccc2c1CC(O)C(O)C2 (stereo not drawn) [nadolol]
- attenuation of peripheral β2-AR agonist effects (heart rate, palpitations, tremors, potassium, glucose) [14]: could attenuate these peripheral effects; also recorded: sufficient to inhibit peripheral β2-AR agonist mediated effects
- increase in heart rate after 80 μg clenbuterol [15]: effectively blocked
- TEAEs considered related to nadolol ([8]; all subjects enrolled): No TEAEs
- side effects of β2-agonist (increased heart rate, tremor, palpitations) ([8]; pre-administration of nadolol): mostly eliminated
- half-life [16]: 7 to 13 h
- Cmax ([16]; 1 mg): 1 to 1.5 ng/mL
- Cmax ([16]; 4 mg): 2.8 to 4 ng/mL
- effect of nadolol on Compound 03-5 increase in heart rate and other peripheral effects (hyperglycemia, hypokalemia) ([3]; Cohort D1, 1 mg nadolol pre-administered, Compound 03-5 orally up to 6 mg): substantially attenuated
- effect of nadolol on peripheral effects of Compound 03-5 (heart rate, glucose, potassium, tachycardia, tremor, palpitations) ([3]; Cohort D1, nadolol 1 mg up to 40 mg pre-administered, Compound 03-5 3-12 mg): blocked the peripheral effects
- effect of nadolol on peripheral effects of Compound 03-5 on heart rate, etc. ([3]; Cohort D2, nadolol 3 mg pre-administered, Compound 03-5 1-10 mg): similarly blocked the peripheral effects
- effects of Compound 03-5 on blood glucose and potassium, tachycardia, tremor and palpitations ([3]; pre-administration of 1 mg nadolol, 6 mg Compound 03-5): Concomitant attenuation
- hypokalemia caused by Compound 03-5 ([3]; subjects dosed with nadolol 1-40 mg, Cohorts D1 and D2): attenuation of hypokalemia

Structure (SMILES): CC(C)NCC(O)COc1cccc2[nH]ccc12 (stereo not drawn) [pindolol]
- effect on the VVLT (learning and memory) [11]: detrimental effect

Structure (SMILES): CC(C)(C)NCC(O)c1ccc(O)c(CO)c1 (stereo not drawn) [salbutamol]
- effect on the VVLT (learning and memory) [11]: positive effects on the VVLT
